{"source": "patent US10898548B2", "about": "“Modulators of protein tyrosine phosphatase and uses thereof” (LEUVAS THERAPEUTICS, priority 2015, dated 2021)", "system": "protein tyrosine phosphorylation in fMLP-stimulated monocytes", "assay": "Kinexus antibody microarray of tyrosine phosphorylation in fMLP-stimulated monocytes", "type": "cell-based, human", "set-up": "key to Functional effect of P1-WD on BTK / Functional effect of P1-WD on CDK2 / Functional effect of P1-WD on CTTN / Functional effect of P1-WD on DAB1 / Functional effect of P1-WD on DOK2 / Functional effect of P1-WD on ERBB2 / Functional effect of P1-WD on GRIN2B / Functional effect of P1-WD on ITGB1 / Functional effect of P1-WD on JAK2 / Functional effect of P1-WD on KDR / Functional effect of P1-WD on KIT / Functional effect of P1-WD on LIMK1 / Functional effect of P1-WD on MET / Functional effect of P1-WD on PDGFRA / Functional effect of P1-WD on PDGFRB / Functional effect of P1-WD on PRKCD / Functional effect of P1-WD on SHC1 / Functional effect of P1-WD on STAT1 / Functional effect of P1-WD on STAT2 / Functional effect of P1-WD on STAT3 / Functional effect of P1-WD on STAT5A / Functional effect of P1-WD on VCL / Functional effect of P1-WD on ABL1 / Functional effect of P1-WD on BLNK / Functional effect of P1-WD on BMX: inhibition (IN); activation (ACT)", "text": "To identify PTPRG targets in the context of fMLP signaling, we employed a high throughput antibody array technology using the P1-WD approach and fMLP-potentiated signaling networks, since this directly correlates with integrin triggering and mediated rapid adhesion. To analyze the phosphoproteome we used the comprehensive high throughput service developed by Kinexus, CA, USA. The Kinexus antibody microarray includes about 500 pan-specific and over 350 phosphosite-specific antibodies per chip, in duplicate spots. The analysis covers a variety of selected cell signaling proteins regulating cell proliferation, stress, apoptosis, adhesion, secretion, motility and other biological processes. Monocytes were treated with 50 μM P1 or P1-WD peptides for 60 min. at 37° C. and then stimulated with 50 nM fMLP for 3 min. Cells were immediately lysed according to Kinexus protocol and the samples were sent to Kinexus for microarray analysis. Data were normalized to control cells and statistically filtered by Kinexus to identify the most significant best hits. The analysis was, then, focused on phosphotyrosine-specific antibodies. Network inference analysis was performed within Cytoscape 3.1 bioinformatics environment by using previously established interatomic datasets compiled from public data-bases. The compiled protein-protein interatomic data-set was manually curated to remove self-loops and duplicate edges; different protein IDs were normalized to HGNC standard IDs. The set of 31 identified proteins whose tyrosine phosphorylation status was affected by PTPRG activity was used as bioinformatics probe allowing sub-network reconstruction. Directed node centrality indexes were computed with the Cytoscape plug-in Centiscape 2.1 (Scardoni G, et al., 2009, Bioinformatics 25: 2857-2859). Network modular decomposition was executed with the Cytoscape plug-in MCODE (Bader G, et al., 2003, BMC Bioinformatics 4: 2). Literature data mining was performed by multiple data base interrogation, mainly based on Phosphosite, PhosphoELM, PhosphoNet and KEA.\nData analysis identified 31 molecules whose phosphorylation was modified in a statistically significant manner (Table 9). Values in % columns are percentage increase or decrease of protein tyrosine phosphorylation upon fMLP-triggering in P1-WD-treated vs P1-control treated monocytes. For some proteins (For some proteins (EGFR, INSR, KDR, KIT, PDGFRA, PTK2, PXN, SRC and ZAP70) multiple phosphotyrosine residues are detected. From left to right, columns are HGNC protein symbols (in alphabetic order), phosphosites (p-Sites), changes of phosphorylation (induced by P1-WD) and the putative functional effect, inferred from literature data-mining. EGFR and PTK2 are highlighted in gray since the functional effect could not be unambiguously inferred. The functional effect of P1-WD in the far right column indicates either inhibition (IN) or activation (ACT).", "key": {"[1]": {"settings": "P1-WD vs P1, 50 μM 60 min, 50 nM fMLP 3 min"}, "[2]": {"settings": "putative, inferred from literature data-mining"}, "[3]": {"settings": "putative, inferred from literature data-mining, per p-Site"}}, "data": [{"substance": "P1-WD: fusion Trojan peptide SEQ ID 3: Penetratin, glycine, PTPRG wedge domain aa 831-856; RQIKIWFQNRRMKWKKGKQFVKHIGELYSNNQHGFSEDFEEVQ (listed as Homo sapiens)", "values": [{"measurement": "change of ABL1 Y412 tyrosine phosphorylation", "setting": "[1]", "value": "−40", "unit": "%"}, {"measurement": "change of BLNK Y84 tyrosine phosphorylation", "setting": "[1]", "value": 19, "unit": "%"}, {"measurement": "change of BMX Y40 tyrosine phosphorylation", "setting": "[1]", "value": "−7", "unit": "%"}, {"measurement": "change of BTK Y223 tyrosine phosphorylation", "setting": "[1]", "value": "−58", "unit": "%"}, {"measurement": "change of CDK2 Y15 tyrosine phosphorylation", "setting": "[1]", "value": 282, "unit": "%"}, {"measurement": "change of CTTN Y470 tyrosine phosphorylation", "setting": "[1]", "value": 21, "unit": "%"}, {"measurement": "change of DAB1 Y198 tyrosine phosphorylation", "setting": "[1]", "value": "−34", "unit": "%"}, {"measurement": "change of DOK2 Y142 tyrosine phosphorylation", "setting": "[1]", "value": 9, "unit": "%"}, {"measurement": "change of EGFR Y1068 tyrosine phosphorylation", "setting": "[1]", "value": "−13", "unit": "%"}, {"measurement": "change of EGFR Y1148 tyrosine phosphorylation", "setting": "[1]", "value": "−16", "unit": "%"}, {"measurement": "change of EGFR Y1173 tyrosine phosphorylation", "setting": "[1]", "value": 68, "unit": "%"}, {"measurement": "change of ERBB2 Y1248 tyrosine phosphorylation", "setting": "[1]", "value": 34, "unit": "%"}, {"measurement": "change of GRIN2B Y1474 tyrosine phosphorylation", "setting": "[1]", "value": 29, "unit": "%"}, {"measurement": "change of INSR Y999 tyrosine phosphorylation", "setting": "[1]", "value": 58, "unit": "%"}, {"measurement": "change of INSR Y1189/Y1190 tyrosine phosphorylation", "setting": "[1]", "value": 27, "unit": "%"}, {"measurement": "change of ITGB1 Y783 tyrosine phosphorylation", "setting": "[1]", "value": "−11", "unit": "%"}, {"measurement": "change of JAK2 Y1007/Y1008 tyrosine phosphorylation", "setting": "[1]", "value": "−33", "unit": "%"}, {"measurement": "change of KDR Y1054 + Y1059 tyrosine phosphorylation", "setting": "[1]", "value": 22, "unit": "%"}, {"measurement": "change of KDR Y1054 tyrosine phosphorylation", "setting": "[1]", "value": "−37", "unit": "%"}, {"measurement": "change of KIT Y703 tyrosine phosphorylation", "setting": "[1]", "value": "−60", "unit": "%"}, {"measurement": "change of KIT Y730 tyrosine phosphorylation", "setting": "[1]", "value": "−47", "unit": "%"}, {"measurement": "change of LIMK1 Y507 tyrosine phosphorylation", "setting": "[1]", "value": "−10", "unit": "%"}, {"measurement": "change of MET Y1003 tyrosine phosphorylation", "setting": "[1]", "value": "−47", "unit": "%"}, {"measurement": "change of PDGFRA Y742 tyrosine phosphorylation", "setting": "[1]", "value": 133, "unit": "%"}, {"measurement": "change of PDGFRA Y754 tyrosine phosphorylation", "setting": "[1]", "value": 86, "unit": "%"}, {"measurement": "change of PDGFRB Y716 tyrosine phosphorylation", "setting": "[1]", "value": "−36", "unit": "%"}, {"measurement": "change of PRKCD Y313 tyrosine phosphorylation", "setting": "[1]", "value": 189, "unit": "%"}, {"measurement": "change of PTK2 Y397 tyrosine phosphorylation", "setting": "[1]", "value": 30, "unit": "%"}, {"measurement": "change of PTK2 Y576 tyrosine phosphorylation", "setting": "[1]", "value": 65, "unit": "%"}, {"measurement": "change of PTK2 Y577 tyrosine phosphorylation", "setting": "[1]", "value": "−60", "unit": "%"}, {"measurement": "change of PTK2 Y861 tyrosine phosphorylation", "setting": "[1]", "value": "−11", "unit": "%"}, {"measurement": "change of PXN Y31 tyrosine phosphorylation", "setting": "[1]", "value": 19, "unit": "%"}, {"measurement": "change of PXN Y118 tyrosine phosphorylation", "setting": "[1]", "value": 144, "unit": "%"}, {"measurement": "change of SHC1 Y349 + Y350 tyrosine phosphorylation", "setting": "[1]", "value": "−10", "unit": "%"}, {"measurement": "change of SRC Y419 tyrosine phosphorylation", "setting": "[1]", "value": "−6", "unit": "%"}, {"measurement": "change of SRC Y530 tyrosine phosphorylation", "setting": "[1]", "value": 94, "unit": "%"}, {"measurement": "change of STAT1 Y701 tyrosine phosphorylation", "setting": "[1]", "value": 38, "unit": "%"}, {"measurement": "change of STAT2 Y690 tyrosine phosphorylation", "setting": "[1]", "value": 61, "unit": "%"}, {"measurement": "change of STAT3 Y705 tyrosine phosphorylation", "setting": "[1]", "value": 182, "unit": "%"}, {"measurement": "change of STAT5A Y694 tyrosine phosphorylation", "setting": "[1]", "value": 50, "unit": "%"}, {"measurement": "change of VCL Y821 tyrosine phosphorylation", "setting": "[1]", "value": "−20", "unit": "%"}, {"measurement": "change of ZAP70 Y292 tyrosine phosphorylation", "setting": "[1]", "value": "−46", "unit": "%"}, {"measurement": "change of ZAP70 Y315 + Y319 tyrosine phosphorylation", "setting": "[1]", "value": 12, "unit": "%"}, {"measurement": "Functional effect of P1-WD on ABL1", "setting": "[2]", "value": "IN"}, {"measurement": "Functional effect of P1-WD on BLNK", "setting": "[2]", "value": "ACT"}, {"measurement": "Functional effect of P1-WD on BMX", "setting": "[2]", "value": "IN"}, {"measurement": "Functional effect of P1-WD on BTK", "setting": "[2]", "value": "IN"}, {"measurement": "Functional effect of P1-WD on CDK2", "setting": "[2]", "value": "IN"}, {"measurement": "Functional effect of P1-WD on CTTN", "setting": "[2]", "value": "IN"}, {"measurement": "Functional effect of P1-WD on DAB1", "setting": "[2]", "value": "IN"}, {"measurement": "Functional effect of P1-WD on DOK2", "setting": "[2]", "value": "ACT"}, {"measurement": "Functional effect of P1-WD on ERBB2", "setting": "[2]", "value": "ACT"}, {"measurement": "Functional effect of P1-WD on GRIN2B", "setting": "[2]", "value": "ACT"}, {"measurement": "Functional effect of P1-WD on ITGB1", "setting": "[2]", "value": "IN"}, {"measurement": "Functional effect of P1-WD on JAK2", "setting": "[2]", "value": "IN"}, {"measurement": "Functional effect of P1-WD on KDR", "setting": "[2]", "value": "IN"}, {"measurement": "Functional effect of P1-WD on KIT", "setting": "[2]", "value": "IN"}, {"measurement": "Functional effect of P1-WD on LIMK1", "setting": "[2]", "value": "IN"}, {"measurement": "Functional effect of P1-WD on MET", "setting": "[2]", "value": "IN"}, {"measurement": "Functional effect of P1-WD on PDGFRA", "setting": "[2]", "value": "ACT"}, {"measurement": "Functional effect of P1-WD on PDGFRB", "setting": "[2]", "value": "IN"}, {"measurement": "Functional effect of P1-WD on PRKCD", "setting": "[2]", "value": "ACT"}, {"measurement": "Functional effect of P1-WD on SHC1", "setting": "[2]", "value": "IN"}, {"measurement": "Functional effect of P1-WD on STAT1", "setting": "[2]", "value": "ACT"}, {"measurement": "Functional effect of P1-WD on STAT2", "setting": "[2]", "value": "ACT"}, {"measurement": "Functional effect of P1-WD on STAT3", "setting": "[2]", "value": "ACT"}, {"measurement": "Functional effect of P1-WD on STAT5A", "setting": "[2]", "value": "ACT"}, {"measurement": "Functional effect of P1-WD on VCL", "setting": "[2]", "value": "IN"}, {"measurement": "Functional effect of P1-WD on INSR", "setting": "[3]", "value": "ACT/ACT"}, {"measurement": "Functional effect of P1-WD on PXN", "setting": "[3]", "value": "ACT/ACT"}, {"measurement": "Functional effect of P1-WD on SRC", "setting": "[3]", "value": "IN/IN"}, {"measurement": "Functional effect of P1-WD on ZAP70", "setting": "[3]", "value": "ACT/ACT"}, {"measurement": "Functional effect of P1-WD on PTK2", "setting": "putative, inferred from literature data-mining, per p-Site Y397/Y577/Y576/Y861, cell wraps to r32 (/IN)", "value": "ACT/IN/ACT"}, {"measurement": "Functional effect of P1-WD on EGFR", "setting": "putative, inferred from literature data-mining, per p-Site Y1068/Y1148/Y1173", "value": "IN/IN/ACT"}]}]}
